The record followed here is patent publication US20200239530A1, “COMPOUNDS AND METHODS OF MODULATING PROTEIN DEGRADATION” (Vividion Therapeutics, Inc., priority 2017, published 2020).

The assay addresses T1, TAP2 Antigen peptide transporter 2 (Homo sapiens, UniProt Q03519).
T1 construct: Cells were resuspended in cold PBS on ice and sonicated with a probe sonicator to achieve lysis; endogenous in cells
T1 sequence (Q03519 1-686): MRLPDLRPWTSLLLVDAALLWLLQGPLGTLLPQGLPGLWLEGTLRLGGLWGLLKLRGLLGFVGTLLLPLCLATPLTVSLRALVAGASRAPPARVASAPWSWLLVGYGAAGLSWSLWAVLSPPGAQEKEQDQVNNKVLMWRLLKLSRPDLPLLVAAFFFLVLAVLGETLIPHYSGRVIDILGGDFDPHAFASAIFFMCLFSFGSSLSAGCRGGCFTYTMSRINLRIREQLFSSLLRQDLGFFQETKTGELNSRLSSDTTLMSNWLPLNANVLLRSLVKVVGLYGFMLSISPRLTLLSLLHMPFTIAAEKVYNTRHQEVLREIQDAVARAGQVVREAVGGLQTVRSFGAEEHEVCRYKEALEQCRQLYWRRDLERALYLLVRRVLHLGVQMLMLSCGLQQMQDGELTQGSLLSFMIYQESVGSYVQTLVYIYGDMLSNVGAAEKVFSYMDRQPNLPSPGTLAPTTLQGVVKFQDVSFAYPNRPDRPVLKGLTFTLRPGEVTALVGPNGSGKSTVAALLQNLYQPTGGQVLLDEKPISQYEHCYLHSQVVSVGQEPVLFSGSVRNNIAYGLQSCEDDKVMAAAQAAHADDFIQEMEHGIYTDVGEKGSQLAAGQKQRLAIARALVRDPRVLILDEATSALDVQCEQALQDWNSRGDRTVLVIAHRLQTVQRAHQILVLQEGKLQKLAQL
T1 sequence (Q03518 1-748 partner): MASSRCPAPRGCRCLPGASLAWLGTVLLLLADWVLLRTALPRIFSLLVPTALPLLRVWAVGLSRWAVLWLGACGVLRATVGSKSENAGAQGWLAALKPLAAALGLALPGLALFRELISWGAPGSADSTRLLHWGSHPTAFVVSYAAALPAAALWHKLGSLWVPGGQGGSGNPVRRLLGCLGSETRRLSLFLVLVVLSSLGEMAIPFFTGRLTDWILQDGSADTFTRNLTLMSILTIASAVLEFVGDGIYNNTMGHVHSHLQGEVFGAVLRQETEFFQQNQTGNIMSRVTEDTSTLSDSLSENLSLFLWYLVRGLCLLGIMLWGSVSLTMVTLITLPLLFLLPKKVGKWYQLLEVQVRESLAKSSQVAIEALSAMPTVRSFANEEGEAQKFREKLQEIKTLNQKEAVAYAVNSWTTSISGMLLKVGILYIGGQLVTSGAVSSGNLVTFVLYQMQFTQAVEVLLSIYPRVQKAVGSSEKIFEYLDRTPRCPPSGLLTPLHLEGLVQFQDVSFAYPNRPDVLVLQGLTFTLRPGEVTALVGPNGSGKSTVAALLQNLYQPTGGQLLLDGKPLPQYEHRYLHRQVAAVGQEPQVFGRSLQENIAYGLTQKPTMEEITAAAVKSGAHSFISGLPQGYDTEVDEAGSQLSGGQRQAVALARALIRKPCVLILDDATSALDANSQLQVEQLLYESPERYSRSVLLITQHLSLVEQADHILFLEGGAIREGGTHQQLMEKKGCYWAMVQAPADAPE
Description: Cysteine liganding, probe competition. The format is binding. The settings on record: for Liganded: TAP2 Res# 641, uniprot Q03519. The essentials:
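Steps: sonicate cells in cold PBS; treat 5 mg/ml lysate with compound (25° C, 1 hr); add desthiobiotin iodoacetamide probe from a 10 mM stock (25° C, 1 hr); precipitate, reduce, alkylate, digest with trypsin; capture labelled peptides on streptavidin for analysis.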

With `COc1ccc2c(c1)CCCN2C(=O)CCl` [KB02], the Liganded entry is listed as “YES”.
On to `O=C(CCl)Nc1cc(C(F)(F)F)cc(C(F)(F)F)c1` [KBO3], for which the Liganded result is on record as “YES”. Moreover, for the setting “uniprot Q03519”, the 100 ave was 70.57, the “500 Max” value came to 94.0932 and the 500 ave was determined as 94.0932. For the setting “uniprot Q03519, in % (unit assumed)”, the “100 Max” value is recorded as 71.9622.
